# Values joined by “and” are separate entries in the source; they are usually repeats but may differ in a detail not shown here. Identical values can stand only once.
# What was measured:
# [1] = target: T1, Abg (Agrobacterium Sp. β-glucosidase) (Agrobacterium sp., UniProt P12614); experiment: Enzymatic hydrolysis at 13 mM studied by quantitative 1H NMR; type: biochemical; conditions: 13 mM substrate in D2O, maleate buffer pD 6.5, Abg 1.6 U/mL, 37 °C
# T1 sequence (P12614 1-459): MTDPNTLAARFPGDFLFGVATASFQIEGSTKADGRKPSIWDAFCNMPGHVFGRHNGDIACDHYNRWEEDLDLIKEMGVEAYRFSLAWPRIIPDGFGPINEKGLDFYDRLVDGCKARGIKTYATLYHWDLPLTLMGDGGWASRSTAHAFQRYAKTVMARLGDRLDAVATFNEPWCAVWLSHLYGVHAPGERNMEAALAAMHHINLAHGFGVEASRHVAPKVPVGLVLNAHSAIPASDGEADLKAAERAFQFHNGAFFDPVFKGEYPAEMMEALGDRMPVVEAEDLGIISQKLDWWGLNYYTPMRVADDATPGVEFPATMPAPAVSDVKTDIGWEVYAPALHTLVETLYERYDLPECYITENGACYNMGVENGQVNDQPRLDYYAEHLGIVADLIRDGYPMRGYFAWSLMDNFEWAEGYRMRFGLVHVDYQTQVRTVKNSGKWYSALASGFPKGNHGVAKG
# [2] = target: T2, Agrobacterium Sp. β-glucosidase (Abg, GH1 family) (Agrobacterium sp., UniProt P12614); experiment: Michaelis-Menten kinetics of enzymatic hydrolysis, release of 4-nitrophenol (absorbance at 405 nm); type: biochemical; conditions: transglycosylation suggested for rate enhancement
# T2 sequence (P12614 1-459): T1 sequence (P12614 1-459)
# Protocol: Enzymatic reactions were performed in triplo at pH 6.8 (50 mM final concentration) containing 0.1 % bovine serum albumin at 37 °C.[25] Aliquots of 100 μL were taken at constant time periods and added to 100 μL aq. NaOH (0.1 M) in a 96‐well microtitre plate to quench the enzymatic reaction and ensure maximal absorption of sodium 4‐nitrophenolate as outlined in previous studies.[28] The initial rate (vo) was determined normalized on the ∼0.1 U/mL enzyme concentration and plotted against substrate concentration [S]. Non‐linear regression analysis based on 7–10 concentrations depending on the glycoside, was used to determine the Km and k cat values. k cat values were normalized based on the enzyme concentration. […]
# Kinetic evaluation of 4- nitrophenyloxymethyl glycosides. Enzyme reactions were performed in triplicate. Substrate samples (final volume of 1 mL) were prepared by diluting carefully prepared substrate stock solutions with sodium phosphate buffer pH 6.8 (50 mM final concentration) containing 0.1% bovine serum albumin and milliQ to the desired concentration. The samples were equilibrated at 37 °C for at least 5 minutes before the enzyme in 50 mM buffer (2 U per ml, 50 uL) was added. Aliquots of 100 µL were taken at constant time periods and added to 100 µL aq. NaOH (0.1 M) in a 96 well microtiter plate to quench the enzymatic reaction. The absorbance was measured at 405 nm using a Tecan Spark M10 plate reader.
# Negative assay controls contained no substrate or no enzyme. Rates of the enzymatic reactions were determined at 7 different substrate concentrations from 0.02 – 1.0 mM. Km and kcat values were determined by nonlinear regression analysis using Graphpad 5.0 (GraphPad Software, San Diego, California USA, www.graphpad.com) for fitting the data. Calibration samples at varying concentration (0.05 – 0.5 mM) were prepared similar to the substrate samples in the enzyme reactions by diluting a carefully prepared 4-nitrophenol stock solution with sodium phosphate buffer pH 6.8 (50 mM final concentration) containing 0.1% bovine serum albumin and milliQ to the desired concentration. […]
# (T1 determined as 9.13 sec.) was used. Dynamic measurements were started by heating the sample in the NMR to 37 °C and recording a t0-spectrum. Subsequently Abg (V = 2.05 uL, 0.82 U, 1.64 U/mL) was added to the sample outside of the NMR. The sample was mixed by shaking and quickly reintroduced to the NMR.
# The time of enzyme addition was recorded as t0. Spectra were recorded over an appropriate time- scale with the relaxation delay at 3*T1 of the internal standard.
# In vivo experiments were performed at the company Charles Rivers (Den Bosch, The Netherlands) in accordance with Dutch law of animal experiments and under approval of the central committee of animal experiments (CCD). Relative and absolute bioavailability may be determined in different animal models and according to different protocols.
# The following protocol is typical for determining bioavailability in female Beagle dogs. The animals were deprived from food over a time period of 8 h prior to administration and 2 h after administration of the test molecules. Water was supplied without limitation. On the study day, the animals received test molecule 10h […]
# ethanol and 0.9% NaCl + 5% mannitol in water. Blood samples were collected from the jugular vein on the […]
# [3] = Control experiments without enzyme (stability in assay buffer); type: physicochemical; conditions: 200 μM, 50 mM phosphate buffer pH 6.8, 37 °C, HPLC
# [4] = target: T1, Abg (Agrobacterium Sp. β-glucosidase); experiment: Enzymatic conversion of glycoside-drug conjugates at 200 μM analyzed by HPLC; type: biochemical; conditions: 37 °C; for Product release: 200 μM substrate, 50 mM phosphate buffer pH 6.8, Abg 0.1 U/mL
# [5] = In vivo pharmacokinetics study after oral gavage, losartan in blood by LC-MS-MS; set-up: species or system female Beagle dogs; conditions: 15 μmol/kg oral gavage, Beagle dog; for Intact conjugate in the blood circulation: LC-MS-MS
# [6] = pH stability test and stability in formulation; type: physicochemical
# Protocol: In vivo experiments. […] To investigate the chemical stability towards conditions in the gastrointestinal tract, we performed pH stability test. […] The pharmacokinetic profile of 10 h was studied in a dog‐animal model (adult beagle).
smiles,measurement,setting,value
"O=[N+]([O-])c1ccc(O[C@@H]2O[C@H](CO)[C@@H](O)[C@H](O)[C@H]2O)cc1 [6 a, reference compound]",Release of 4-nitrophenol followed by 1H NMR (in words),[1],release of 4‐nitrophenol
same,V0 at high substrate concentration (in words),[2],followed a horizontal asymptote
O=c1[nH]c(=O)n(CO[C@@H]2O[C@H](CO)[C@@H](O)[C@H](O)[C@H]2O)cc1F [10 f],Degradation in the control experiment (without enzyme),[3],no degradation was observed
same,Product release,[4]; 0.5 h,46% and 45.8±5.2%
same,Product release,[4]; 1.0 h,65.2±1.5%
same,Product release,[4]; 2.0 h,77.8±9.7%
"O=[N+]([O-])c1ccc(OCO[C@@H]2O[C@H](CO)[C@@H](O)[C@H](O)[C@H]2O)cc1 [5 a, 4‐nitrophenyloxymethyl glucoside]",Release of 4-nitrophenol followed by 1H NMR (in words),[1],showed release of 4‐nitrophenol
CCCCc1nc(Cl)c(CO)n1Cc1ccc(-c2ccccc2-c2nnnn2CO[C@@H]2O[C@H](CO)[C@@H](O)[C@H](O)[C@H]2O)cc1 [10 h],Maximum concentration (Cmax) of losartan versus dosing of parent (in words),[5],higher
same,Intact conjugate in the blood circulation,[5],no intact conjugate was detected
same,Intact conjugate in the blood circulation,[5]; listed as 19,no conjugate was detected
same,Stability in formulation,[6]; formulation for oral gavage,stable in formulation
same,Chemical stability under acidic conditions,[6]; pH 1–2,stable for 16 h
same,Release of the parent drug under acidic conditions,"[6]; pH 1–2, 16 h",did not show any release of the parent drug
same,Enzymatic hydrolysis by Abg (in words),"[4]; 200 μM, HPLC, in presence of 5 % ethanol",hydrolyzed efficiently
same,Product release,"[4]; 0.5 h, in presence of 5 % ethanol",29.3±0.24%
same,Product release,"[4]; 1.0 h, in presence of 5 % ethanol",50.4±0.4%
same,Product release,"[4]; 2.0 h, in presence of 5 % ethanol",77.2±0.7%
